Reference: US20090075926A1, “METHOD FOR IDENTIFYING AND MANIPULATING CELLS” (priority 2006, published 2009)

Columns and labels:
[1] = tested on: H9 human embryonic stem cells; assay: human embryonic stem cell growth / live-dead assay on matrigel; type: cell-based; details: for live stem cells when free peptide is added to monovalent anti-MUC1*: monovalent anti-MUC1* plus free MUC1* peptide vs no peptide
Procedure: The details are that H9 low passage number hESCs were grown over matrigel for 7 days. To one set of wells was added bivalent anti-PSMGFR; to a second set was added the monovalent anti-PSMGFR; and to a third set buffer was added as a control. The results were that the addition of monovalent anti-PSMGFR caused stem cells to die within 8 hours. Cells immediately rounded up and within hours floated to the top of the media. […] Colonies were larger and in general had less differentiated cells.
Based on the findings that MUC1* mediates growth in cancer cells, experiments were devised to show whether or not stem cell growth could be manipulated by altering the dimerization state of MUC1*. A set number of human embryonic stem cells, H9p55, were plated onto matrigel. Cells were treated with either: 1) the bivalent anti-MUC1* antibody (rabbit polyclonal antibody raised the PSMGFR sequence), which dimerizes the MUC1* portion of the receptor; 2) the monovalent form of this same antibody, which binds to a single MUC1* receptor and prevents dimerization; or 3) nothing added as a control. The most striking result was that nearly all the cells, to which the monovalent anti-MUC1* antibody was added, died within 8 hours of the treatment, see FIGS. 25 and 26. […] A complete reversal of the monovalent antibody induced cell death was not expected since the free peptide could also compete with the cell surface MUC1* receptor for binding to the activating ligand. […] Therefore, the experiment was repeated but the analysis was done in a manner that resultant cell numbers could be quantitated.
A given number of cells H9p55 were added to each well. Again, the cells were treated with either bivalent anti-MUC1*, monovalent anti-MUC1* or no antibody as a control and then counted on a cell counting instrument. The graph of FIG. 32 summarizes the results. Again, treatment with the monovalent anti-MUC1* antibody caused cell death within 8 hours. […] The graph of FIG. 33 gives the details of this experiment. […]

[2] = tested on: ERK2 phosphorylation (MAP kinase pathway) via PSMGFR region of MUC1; assay: western blot of ERK2 phosphorylation upon MUC1* dimerization and small molecule competition; type: cell-based; details: competitor small molecule present with anti-PSMGFR
Source text: FIG. 6 is a western blot of a competition experiment in which small molecules that bind to the PSMGFR region of MUC1 compete with anti-PSMGFR for binding to the site. […] The chemical formula for the competitor compound MN 9 referred to in this figure is
The western blot probe antibody is phospho-ERK2. FIG. 6 is a western blot of a competition experiment in which small molecules that bind to the PSMGFR region of MUC1 compete with anti-PSMGFR for binding to the site.

[3] = tested on: hematopoietic stem cells (CD34++CD38−); details: recombinant protein added; cited from earlier work
[4] = tested on: hematopoietic progenitor cells (CD34+CD38+); details: recombinant protein added; cited from earlier work
[5] = tested on: HEL cells; details: recombinant human protein as GST fusion; cited from earlier work
[6] = molecular target: T1, PSMGFR (MUC1*) peptide (Homo sapiens, UniProt P15941); assay: immunoprecipitation with histidine-tagged PSMGFR (MUC1*) peptide and western blot with anti-NM23; type: binding; details: T47D cancer cell extracts
T1 sequence (P15941 1110-1154 limits assumed): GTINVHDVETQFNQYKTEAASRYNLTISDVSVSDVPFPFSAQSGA
Procedure: NM23 is the ligand that dimerizes and activates the MUC1* growth factor receptor. T47D cancer cell extracts were immunoprecipitated with magnetic beads that were pre-bound with histidine-tagged PSMGFR (MUC1*) peptide. The captured MUC1* binding species were then separated by SDS-PAGE. A western blot was then performed by probing the gel with an antibody that recognized NM23 H1.

[7] = tested on: MUC1*-positive cancer cells; assay: growth of MUC1*-positive cancer cells with NM23; type: cell-based
[8] = tested on: shed MUC1; details: breast cancer patients; cited from earlier work

MUC1* peptide: free peptide of the MUC1* (PSMGFR) extracellular sequence, competes with cell surface MUC1* (GTINVHDVETQFNQYKTEAASRYNLTISDVSVSDVPFPFSAQSGA; Fragment of MUC1 Growth Factor Receptor)
stem cell count on addition of MUC1* peptide ([1]; bFGF added, with or without bivalent anti-MUC1*): drop in the cell count
live stem cells when free peptide is added to monovalent anti-MUC1* [1]: more live cells
live stem cells when free peptide is added to monovalent anti-MUC1* ([1]; listed as MUC1* free peptide): increase in the number of live cells

O=C(c1ccc2ccccc2c1)N1CCc2c([nH]c3ccccc23)C1c1ccc(C(F)(F)F)cc1 (stereo not drawn) [Compound MN 9]
ERK2 phosphorylation in competition with anti-PSMGFR [2]: ERK2 phosphorylation is inhibited

NM23-H1: recombinant NM23-H1 protein
growth of hematopoietic stem cells [3]: did not induce growth
differentiation into granulocyte, macrophage, or granulocyte-macrophage colonies [4]: reduced the differentiation
erythroid differentiation of HEL cells by TGF-β1 [5]: block erythroid differentiation

NM23: natural ligand that dimerizes and activates the MUC1* growth factor receptor
binding to MUC1* peptide (immunoprecipitated species reacts with anti-NM23) [6]: ligand to MUC1
growth of MUC1*-positive cancer cells [7]: stimulate the growth

B1: NM23-H2: recombinant NM23-H2 protein (protein, UniProt P22392 1-152, looked up)
Nucleoside diphosphate kinase …: MANLERTFIAIKPDGVQRGLVGEIIKRFEQKGFRLVAMKFLRASEEHLKQHYIDLKDRPFFPGLVKYMNSGPVVAMVWEGLNVVKTGRVMLGETNPADSKPGTIRGDFCIQVGRNIIHGSDSVKSAEKEISLWFKPEELVDYKSCAHDWVYE
growth of hematopoietic stem cells [3]: did not induce growth
differentiation into granulocyte, macrophage, or granulocyte-macrophage colonies [4]: reduced the differentiation
erythroid differentiation of HEL cells by TGF-β1 [5]: block erythroid differentiation

B2: G-CSF: granulocyte colony stimulating factor (protein, UniProt P09919 31-207, looked up)
Granulocyte …: TPLGPASSLPQSFLLKCLEQVRKIQGDGAALQEKLVSECATYKLCHPEELVLLGHSLGIPWAPLSSCPSQALQLAGCLSQLHSGLFLYQGLLQALEGISPELGPTLDTLQLDVADFATTIWQQMEELGMAPALQPTQGAMPAFASAFQRRAGGVLVASHLQSFLEVSYRVLRHLAQP
serum levels of shed MUC1 [8]: greatly increased

B3: NM23-H3: recombinant NM23-H3 protein (protein, UniProt Q13232 1-169, looked up)
Nucleoside diphosphate kinase …: MICLVLTIFANLFPAACTGAHERTFLAVKPDGVQRRLVGEIVRRFERKGFKLVALKLVQASEELLREHYAELRERPFYGRLVKYMASGPVVAMVWQGLDVVRTSRALIGATNPADAPPGTIRGDFCIEVGKNLIHGSDSVESARREIALWFRADELLCWEDSAGHWLYE
growth of hematopoietic stem cells [3]: did not induce growth
differentiation into granulocyte, macrophage, or granulocyte-macrophage colonies [4]: reduced the differentiation
